Assay results as given in patent US8252543B2, “Method for detecting candidate alzheimer's disease drug” (Tomohiro Chiba, priority 2006, dated 2012).
“Also recorded” adds a separate entry of the source. Where no end group is shown, it is not given here.

What was measured:
[1] = tested on: STAT3; assay: STAT3 phosphorylation in PC12 cells (immunoblot); type: cell-based; conditions: CNTF 50 ng/ml, IL-6 50 ng/ml, Colivelin 100 pM
Method: (§1) To examine the ability of Colivelin to phosphorylate STAT3 in vivo, a solvent (FIGS. 3A and 3C) or Colivelin (FIGS. 3B and 3D) was administered transnasally to mice twice at 24 hours-intervals. Brain samples were collected 30 minutes after the final administration, and then fresh frozen sections were prepared therefrom. The sections were then stained with an anti-phospho-STAT3 antibody. […] To examine the effect of Colivelin to phosphorylate STAT3 in vitro, PC12 cells were treated with a vehicle (MQ), CNTF, IL-6, Humanin (HN), D-Ser14-HN (D-14), and Colivelin (Col) for […] for stimulation. Phosphorylated STAT3 and total STAT3 were detected by an immunoblot method (FIG. 3E).
PC12 cells were cultured in DNEM (Wako) containing 10% serum (10%-DMEM). For phosphorylation analysis, PC12 cells (cultured at 1.6×10^5 cells/well in a 6-well plate containing serum-free DMEM for 24 hours) were stimulated with a ciliary neurotrophic factor (CNTF, 50 ng/ml), interleukin-6 (IL-6, 50 ng/ml), HN ([…], D-Ser14-HN (D-14, 10 μM, and Colivelin (100 pM) for 15 minutes. Cells were rinsed once with PBS and then lysed in a buffer solution containing phosphatase inhibitors (50 mM Tris HCl [pH7.4], 150 mM NaCl, 1% Triton-X 100, protease inhibitors, 1 mM EDTA, and phosphatase inhibitor cocktails 1 and 2 [Sigma]). Collected samples were separated by normal SDS-PAGE and were then electrically blotted onto PVDF membranes. Detection was performed using an anti-phospho-STAT3 (1:500 dilution) antibody and horseradish peroxidase (HRP)-labeled anti-rabbit IgG antibody (BioRad Laboratories, Hercules, Calif., U.S.A.). Immunoreactive bands were visualized using ECL Western Blotting Detection Reagents (Amersham Bioscience, Uppsala, Sweden). Immunoreactive bands corresponding to total-STAT3 antibody (1:3000 dilution) were subjected to detection on the identical membrane stripped and then determined to be controls.

[2] = tested on: STAT3; assay: Anti-phospho-STAT3 staining of hippocampus of Tg2576 and wild-type mice after Colivelin administration; type: in vivo; conditions: for STAT3 phosphorylation in Tg2576 hippocampus (anti-phospho-STAT3 staining): Tg2576 mice after 3 weeks nasal administration
Method: The brain sections of Tg2576 mice to which Colivelin had been administered were collected, paraffin-embedded samples were prepared therefrom, and then anti-phospho-STAT3 staining was performed. FIGS. 5A and 5B denote wild-type mice to which a vehicle had been administered; FIGS. 5C and 5D denote wild-type mice to which Colivelin had been administered; FIGS. 5E and 5F denote Tg2576 to which the vehicle had been administered; and FIGS. 5G and 5H denote the hippocampus of Tg2576 to which Colivelin had been administered.
Immunohistochemical analysis was performed as described in the document (Yamada M et al., Behav Brain Res (2005) 164: 139-146; Chiba T et al., J Neurosci (2005) 25: 10252-10261). Mice were transcardially perfused with phosphate buffered saline (PBS) and then perfused with 4% paraformaldehyde (PFA). Paraffine-embedded sections or fresh frozen sections, each having a thickness of 10 μm, were prepared. Immunohistochemical detection was performed with anti-phospho-STAT3 antibody (1:100 dilution). Staining images were visualized with the ABC method (Vectastain Elite Kit, Vector, Calif. U.S.A.) or Tyramide signal enhancer kit (Perkin-Elmer).
We confirmed STAT3 activation in the brains of mice to which Colivelin had been nasally administered twice every 24 hours (FIGS. 3A-D). […] We also confirmed STAT3 phosphorylation in an in vitro experiment using PC12 cells. […] To confirm the therapeutic effect of STAT3 activation, an experiment (nasal administration of Colivelin to mice) was conducted for Tg2576 mice, which had been tested by Y-maze test (YM) and confirmed to have memory disorder at 15 months of age (FIG. 4A, left panel). After 3 weeks of administration (administered every other day), their cognitive functions were analyzed by YM, water-finding task (WFT), and elevated-plus maze (EPM). […] We performed phospho-STAT3 immunostaining using the brains of these mice (FIG. 5). We observed significant loss of phospho-STAT3 immunoreactivity in the control Tg2576 mice to which the vehicle had been administered, compared with the wild-type mice.

[3] = tested on: STAT3; assay: STAT3 phosphorylation in mouse brain after transnasal Colivelin (anti-phospho-STAT3 immunohistochemistry); type: in vivo; conditions: mice, transnasal twice at 24 hours-intervals, brain collected 30 minutes after final administration, vs vehicle
Method: as §1
Immunohistochemical analysis was performed as described in the document (Yamada M et al., Behav Brain Res (2005) 164: 139-146; Chiba T et al., J Neurosci (2005) 25: 10252-10261). Mice were transcardially perfused with phosphate buffered saline (PBS) and then perfused with 4% paraformaldehyde (PFA). Paraffine-embedded sections or fresh frozen sections, each having a thickness of 10 μm, were prepared. […]
We confirmed STAT3 activation in the brains of mice to which Colivelin had been nasally administered twice every 24 hours (FIGS. 3A-D). […] After 3 weeks of administration (administered every other day), their cognitive functions were analyzed by YM, water-finding task (WFT), and elevated-plus maze (EPM). […]

[4] = tested on: Tg2576 mice; assay: Y-maze test (YM) in Tg2576 mice; type: in vivo; conditions: Tg2576 mice 15 months of age, nasal administration for 3 weeks (every other day)
Method: (§2) Tg2576 mice and wild-type control mice at 15 months of age were tested by Y-maze test (YM) (FIG. 4A, left). […] Mice were then subjected to nasal administration of Colivelin or a vehicle for 3 weeks. Subsequently, mice were again tested by Y-maze test. […] However, Colivelin administration seemed to ameliorate tendencies observed in Tg2576 to which the vehicle had been administered, such as delay in transfer latency, shortened 1 stay, and prolonged time spent in open arm (difficult to fear).
(§3) Y-maze test (YM) was performed as described in the document (Yamada M et al., Behav Brain Res (2005) 164: 139-146). The apparatus for YM is composed of three grey plastic arms (40 cm long, 12 cm high, 3 cm wide at the bottom, and 10 cm wide at the top). Mice were each allowed to explore the maze freely under observation for 8 minutes. Spontaneous alternation behavior % (SA %) is an indication of spatial working memory and is calculated using a ratio of the arm choices differing from the previous two choices to total choices during the run. […] The time between the onset of exploration and entering to the alcove (Entering latency), initiation of drinking from the water tube (Drinking latency), and the number of grid-line crossing during the test were measured Elevated-plus maze (EPM) was performed as described in the document (Kawasumi M et al., Eur J Neurosci (2004) 19: 2826-2838). […]

[5] = tested on: STAT3; conditions: reported in Hashimoto 2005, Chiba 2005; cited from earlier work
[6] = tested on: Tg2576 mice; assay: Elevated-plus maze (EPM) in Tg2576 mice; type: in vivo; conditions: nasal administration for 3 weeks (every other day)
Method: as §2, §3

[7] = tested on: Tg2576 mice; assay: Water-finding task (WFT) in Tg2576 mice; type: in vivo; conditions: nasal administration for 3 weeks (every other day)
Method: as §2, §3

With IL-6: interleukin-6 the “STAT3 phosphorylation (phosphorylated STAT3 vs total STAT3, immunoblot)” value [1] was “STAT3 had been phosphorylated; also recorded: STAT3 is phosphorylated”.

In the case of SALLRSIPAPAGASRLLLLTGEIDLP [Colivelin], the “STAT3 phosphorylation in Tg2576 hippocampus (anti-phospho-STAT3 staining)” value [2] is reported as “levels close to those in the case of wild-type mice to which the vehicle had been administered”, the “STAT3 phosphorylation in Tg2576 hippocampus (anti-phospho-STAT3 staining)” value ([2]; listed as Coliverlin) is reported as “recovery of phospho-STAT3 immunoreactivity” and the “STAT3 phosphorylation levels in wild-type hippocampus (anti-phospho-STAT3 staining)” value ([2]; wild-type mice after Colivelin administration) is reported as “slightly increased”. The “STAT3 phosphorylation in cerebral cortex (anti-phospho-STAT3 staining)” value [3] was “no significant changes were observed; also recorded: no significant differences were confirmed”, the “STAT3 phosphorylation in hippocampus (anti-phospho-STAT3 staining)” value [3] was “Significant STAT3 phosphorylation was observed; also recorded: Hippocampus-predominant STAT3 phosphorylation” and the “Spontaneous alternation behavior % (SA %), spatial working memory” value [4] was “significantly improved; also recorded: improvement in cognitive functions was confirmed”. The “In vitro STAT3 activation / suppression of cell death” value [5] was “activates in vitro STAT3 so as to suppress cell death”, the “EPM (transfer latency, 1st stay, time spent in open arms)” value [6] was “No significant differences were observed; also recorded: no significant changes were observed” and the “STAT3 phosphorylation (phosphorylated STAT3 vs total STAT3, immunoblot)” value [1] was “STAT3 had been phosphorylated; also recorded: STAT3 is phosphorylated”. For the same molecule, the “WFT indices of memory including drinking latency, entering latency, and crossing” value [7] was “significant amelioration was observed; also recorded: improvement in cognitive functions was confirmed”.

B1: CNTF: ciliary neurotrophic factor (protein, UniProt P26441 1-200, looked up)
Ciliary neurotrophic factor: MAFTEHSPLTPHRRDLCSRSIWLARKIRSDLTALTESYVKHQGLNKNINLDSADGMPVASTDQWSELTEAERLQENLQAYRTFHVLLARLLEDQQVHFTPTEGDFHQAIHTLLLQVAAFAYQIEELMILLEYKIPRNEADGMPINVGDGGLFEKKLWGLKVLQELSQWTVRSIHDLRFISSHQTGIPARGSHYIANNKKM
For B1, the “STAT3 phosphorylation (phosphorylated STAT3 vs total STAT3, immunoblot)” value [1] was “STAT3 had been phosphorylated; also recorded: STAT3 is phosphorylated”.
